Measurements published in patent US7557066B2, “Use of sulfonylureas” (Bayer CropScience AG, priority 2004, dated 2009).

Columns and labels:
CIRAR = assay: Inhibition of revegetation of perennial plants; type: in vivo; details: 600 g of a.i./ha; cut four weeks after application, scored after a further four weeks; 100% = total inhibition
Description: (§1) […] Four weeks after the application, the above-ground parts of the plants were cut off. After a further four weeks, the inhibition of revegetation was scored in percent of the control, 100% corresponding to a total inhibition of revegetation.

LOLPE = assay: Inhibition of revegetation of perennial plants; type: in vivo; details: 600 g of a.i./ha; cut four weeks after application, scored after a further four weeks; 100% = total inhibition
Description: as §1

[1] = test system: monocotyledonous and dicotyledonous weed plants; assay: Pre-emergence effect on weeds (greenhouse, visual scoring); type: in vivo, weed grasses and broad-leaved weeds; details: 100 g or less of active substance per hectare; against Sinapsis alba, Chrysanthemum segetum, Avena sativa, Stellaria media, Echinochloa crus-galli, Lolium multiflorum, Setaria viridis, Abutilon theophrasti, Amaranthus retroflexus, Brachiaria plantaginea, Solanum nigrum, Euphorbia heterophylla, Sorghum halepense, Panicum miliaceum; scored after 3 to 4 weeks
Description: Seeds or rhizome pieces of monocotyledonous and dicotyledonous weed plants were placed in sandy loam soil in cardboard pots and covered with soil. The compounds of the formula (I) or their salts, formulated in the form of wettable powders or emulsion concentrates, were then applied to the surface of the soil cover in the form of aqueous suspensions or emulsions at an application rate of 600 to 800 l of water/ha (converted) in various dosages.
After the treatment, the pots were placed in a greenhouse and kept under good growth conditions for the weeds. After the test plants had emerged, the damage to the plants or the negative effect on the emergence was scored visually after a test period of 3 to 4 weeks by comparison with untreated controls. As shown by the test results, the compounds tested have good herbicidal pre-emergence activity against a broad spectrum of weed grasses and broad-leaved weeds. […] Post-Emergence Effect on Weeds

[2] = test system: monocotyledonous and dicotyledonous weeds; assay: Post-emergence effect on weeds (greenhouse, visual scoring); type: in vivo, weed grasses and broad-leaved weeds; details: 100 g or less of active substance per hectare; against Sinapsis alba, Echinochloa crus-galli, Lolium multiflorum, Chrysanthemum segetum, Setaria viridis, Abutilon theophrasti, Amaranthus retroflexus, Panicum miliaceum, Brachiaria plantaginea, Solanum nigrum, Euphorbia heterophylla, Sorghum halepense, Avena sativa; scored after about 3 to 4 weeks
Protocol: (§2) Seeds or rhizome pieces of monocotyledonous and dicotyledonous weeds were placed in a sandy loam soil in plastic pots, covered with soil and cultivated in a greenhouse under good growth conditions. Three weeks after sowing, the test plants were treated at the three-leaf stage. The compounds of the formula (I) or their salts, formulated as wettable powders or as emulsion concentrates, were sprayed, at various dosages, onto the green parts of the plants at an application rate of 600 to 800 l of water/ha (converted). After the test plants had remained in the greenhouse for about 3 to 4 weeks under optimum growth conditions, the effect of the preparations was scored visually by comparison with untreated controls. The tested compounds also have good herbicidal post-emergence activity against a broad spectrum of economically important weed grasses and broad-leaved weeds. […] Crop Plant Compatibility

soybeans (Glycine max.) = assay: Crop plant compatibility (greenhouse, visual scoring); type: in vivo; details: for damage to crops of leguminous plants, such as soybeans: pre-emergence or post-emergence method, various dosages, visual scoring four to five weeks after application
Protocol: In further greenhouse experiments, seeds of a substantial number of crop plants and weeds were placed into sandy loam soil and covered with soil. Some of the pots were treated immediately as described under Section 1, and the remaining pots were placed in a greenhouse until the plants had developed two to three true leaves and then sprayed with various dosages of the compounds of the formula (I) or salts thereof, as described in Section 2.

Setaria viridis = assay: Post-emergence effect on weeds; type: in vivo; details: 30 g of active substance per hectare
Protocol: as §2

Solanum nigrum = assay: Post-emergence effect on weeds; type: in vivo; details: 30 g of active substance per hectare
Protocol: as §2

Amaranthus retroflexus = assay: Post-emergence effect on weeds; type: in vivo; details: 30 g of active substance per hectare
Protocol: as §2

Brachiaria plantaginea = assay: Post-emergence effect on weeds; type: in vivo; details: 30 g of active substance per hectare
Protocol: as §2

Echinochloa crus-galli = assay: Post-emergence effect on weeds; type: in vivo; details: 30 g of active substance per hectare
Protocol: as §2

| SMILES | herbicidal action in the pre-emergence method [1] | herbicidal action by the post-emergence method [2] | damage to crops of leguminous plants, such as soybeans (soybeans (Glycine max.)) | further results |
| --- | --- | --- | --- | --- |
| O=C(O)CNCP(=O)(O)O [Glyphosate] | – | – | – | inhibition of revegetation, CIRAR (CIRAR): 25%; inhibition of revegetation, LOLPE (LOLPE): 35% |
| CCOc1cc(OC)nc(NC(=O)NS(=O)(=O)c2ncccc2C2=NOCCO2)n1 [I-1] | very good herbicidal action | very good herbicidal action | did not damage | – |
| COc1cc(C)nc(NC(=O)[N-]S(=O)(=O)c2ncccc2C2=NOCCO2)n1.[Na+] [I-3] | very good herbicidal action | very good herbicidal action | did not damage | – |
| COc1cc(N(C)C)nc(NC(=O)NS(=O)(=O)c2ncccc2C2=NOCCO2)n1 [I-8] | very good herbicidal action | very good herbicidal action | did not damage | – |
| COc1cc(Cl)nc(NC(=O)NS(=O)(=O)c2ncccc2C2=NOCCO2)n1 [I-9] | very good herbicidal action | very good herbicidal action | did not damage | damage to soybeans (Glycine max.) (soybeans (Glycine max.); 8 g of active substance per hectare): 0%; herbicidal activity against Setaria viridis (Setaria viridis): 100%; herbicidal activity against Solarium nigrum (Solanum nigrum): 100%; herbicidal activity against Amaranthus retroflexus (Amaranthus retroflexus): 93%; herbicidal activity against Brachiaria plantaginea (Brachiaria plantaginea): 100%; herbicidal activity against Echinochloa crus-galli (Echinochloa crus-galli): 100% |
| COc1cc(Cl)nc(NC(=O)[N-]S(=O)(=O)c2ncccc2C2=NOCCO2)n1.[Na+] [I-10] | very good herbicidal action | very good herbicidal action | did not damage | – |
| COc1cc(OC)nc(NC(=O)NS(=O)(=O)c2ncccc2C2=NOCCO2)n1 [I-11] | very good herbicidal action | very good herbicidal action | did not damage | – |
| COc1cc(OC)nc(NC(=O)[N-]S(=O)(=O)c2ncccc2C2=NOCCO2)n1.[Na+] [I-12] | very good herbicidal action | very good herbicidal action | did not damage | – |
| CCOc1cc(OCC)nc(NC(=O)[N-]S(=O)(=O)c2ncccc2C2=NOCCO2)n1.[Na+] [I-14] | very good herbicidal action | very good herbicidal action | did not damage | – |
| CCOc1cc(Cl)nc(NC(=O)NS(=O)(=O)c2ncccc2C2=NOCCO2)n1 [I-21] | very good herbicidal action | very good herbicidal action | did not damage | – |
| CCOc1cc(Cl)nc(NC(=O)[N-]S(=O)(=O)c2ncccc2C2=NOCCO2)n1.[Na+] [I-22] | very good herbicidal action | very good herbicidal action | did not damage | – |
| Cc1cc(C)nc(NC(=O)NS(=O)(=O)c2ncccc2C2=NOCCO2)n1 [I-23] | very good herbicidal action | very good herbicidal action | did not damage | – |
| Cc1cc(Cl)nc(NC(=O)NS(=O)(=O)c2ncccc2C2=NOCCO2)n1 [I-29] | very good herbicidal action | very good herbicidal action | did not damage | – |
| Cc1cc(Cl)nc(NC(=O)[N-]S(=O)(=O)c2ncccc2C2=NOCCO2)n1.[Na+] [I-30] | very good herbicidal action | very good herbicidal action | did not damage | – |
| COc1nc(NC(=O)NS(=O)(=O)c2ncccc2C2=NOCCO2)nc(OC)n1 [I-51] | very good herbicidal action | very good herbicidal action | did not damage | – |
| COc1nc(NC(=O)[N-]S(=O)(=O)c2ncccc2C2=NOCCO2)nc(OC)n1.[Na+] [I-52] | very good herbicidal action | very good herbicidal action | did not damage | – |
| COc1nc(NC(=O)[N-]S(=O)(=O)c2ncccc2C2=NOCCO2)nc(N(C)C)n1.[Na+] [I-60] | very good herbicidal action | very good herbicidal action | did not damage | – |
| CCOc1nc(Cl)nc(NC(=O)[N-]S(=O)(=O)c2ncccc2C2=NOCCO2)n1.[Na+] [I-70] | very good herbicidal action | very good herbicidal action | did not damage | – |
| CN(C)c1nc(NC(=O)NS(=O)(=O)c2ncccc2C2=NOCCO2)nc(OCC(F)(F)F)n1 [I-142] | very good herbicidal action | very good herbicidal action | did not damage | – |
| O=C(Nc1nc(Cl)cc(OCC(F)(F)F)n1)NS(=O)(=O)c1ncccc1C1=NOCCO1 [I-143] | very good herbicidal action | very good herbicidal action | did not damage | – |
| O=C([N-]S(=O)(=O)c1ncccc1C1=NOCCO1)Nc1nc(Cl)cc(OCC(F)(F)F)n1.[Na+] [I-145] | very good herbicidal action | very good herbicidal action | did not damage | – |
